Data from the NIST ThermoML archive (doi:10.1016/j.fluid.2016.04.009).

Tests used:
[1] = refractive index (Na D-line) (dimensionless); settings: 101.33 kPa, Liquid, Standard Abbe refractometry
[2] = for viscosity / mass density: 101.33 kPa; for viscosity / mass density / surface tension liquid-gas: Liquid; for viscosity: Concentric cylinders viscometry; for mass density: Vibrating tube method; for surface tension liquid-gas: Pendant drop shape; for Normal melting temperature: Crystal, DTA
[3] = molar heat capacity at constant pressure; settings: 298.15 K; 101.33 kPa; Liquid; Drop calorimetry
[4] = Molar enthalpy of transition or fusion; settings: Crystal; DSC

CC(C)C[N+]1(C)CCCC1.O=S(=O)([N-]S(=O)(=O)C(F)(F)F)C(F)(F)F
Settings	mass density [kg/m3]	refractive index	surface tension liquid-gas [mN/m]	viscosity [mPa·s]
[1], 288.15 K	–	1.42708	–	–
[1], 293.15 K	–	1.42563	–	–
[1], 298.15 K	–	1.42418	–	–
[1], 303.15 K	–	1.42273	–	–
[1], 308.15 K	–	1.42127	–	–
[1], 313.15 K	–	1.41982	–	–
[1], 318.15 K	–	1.41837	–	–
[2], 293.15 K	1404.5	–	–	83.61
[2], 298.15 K	1400	–	–	66.29
[2], 298.2 K	–	–	33.54	–
[2], 303.15 K	1395.6	–	–	53.53
[2], 308.15 K	1391.2	–	–	43.91
[2], 308.2 K	–	–	33.1	–
[2], 313.15 K	1386.8	–	–	36.52
[2], 318.15 K	1382.4	–	–	30.75
[2], 318.2 K	–	–	32.65	–
[2], 323.15 K	1378	–	–	26.18
[2], 328.15 K	1373.7	–	–	22.52
[2], 328.2 K	–	–	32.2	–
[2], 333.15 K	1369.4	–	–	19.57
[2], 338.15 K	1365.2	–	–	17.09
[2], 338.2 K	–	–	31.75	–
[2], 343.15 K	1360.9	–	–	15.06
[2], 343.2 K	–	–	31.53	–
[2], 348.15 K	1356.7	–	–	13.36
[2], 353.15 K	1352.5	–	–	11.95
[2], 358.15 K	1348.3	–	–	10.7
[2], 363.15 K	1344.1	–	–	9.65

Settings	Molar enthalpy of transition or fusion [kcal/mol]	Normal melting temperature [°C]	molar heat capacity at constant pressure [J/K/mol]
[2]	–	-0.2	–
[3]	–	–	582.08
[4]	3.13	–	–

CCCC[n+]1cccc(C)c1.O=S(=O)([N-]S(=O)(=O)C(F)(F)F)C(F)(F)F
Settings	mass density, [2] [kg/m3]	refractive index, [1]	viscosity, [2] [mPa·s]
288.15 K	–	1.44894	–
293.15 K	1418.7	1.44737	84.2
298.15 K	1414.1	1.4458	65.74
303.15 K	1409.4	1.44423	52.39
308.15 K	1404.8	1.44266	42.46
313.15 K	1400.2	1.44109	34.93
318.15 K	1395.6	1.43952	29.13
323.15 K	1391.1	–	24.59
328.15 K	1386.6	–	20.97
333.15 K	1382	–	18.1
338.15 K	1377.6	–	15.71
343.15 K	1373.1	–	13.77
348.15 K	1368.7	–	12.15
353.15 K	1364.3	–	10.82
358.15 K	1359.9	–	9.66
363.15 K	1355.6	–	8.69

Settings	molar heat capacity at constant pressure [J/K/mol]
[3]	578.01

CCCCCC[n+]1ccn(C)c1.O=S(=O)([N-]S(=O)(=O)C(F)(F)F)C(F)(F)F
Settings	Normal melting temperature [°C]
[2]	-10.5

CCCC[N+]1(C)CCCC1.O=S(=O)([N-]S(=O)(=O)C(F)(F)F)C(F)(F)F
Settings	mass density, [2] [kg/m3]	refractive index, [1]	viscosity, [2] [mPa·s]
288.15 K	–	1.42612	–
293.15 K	1406.1	1.42466	101.71
298.15 K	1401.6	1.42319	79.57
303.15 K	1397.2	1.42173	63.64
308.15 K	1392.7	1.42027	51.71
313.15 K	1388.3	1.4188	42.67
318.15 K	1383.8	1.41734	35.6
323.15 K	1379.4	–	30.07
328.15 K	1375.1	–	25.66
333.15 K	1370.7	–	22.16
338.15 K	1366.4	–	19.21
343.15 K	1362.1	–	16.83
348.15 K	1357.8	–	14.84
353.15 K	1353.6	–	13.21
358.15 K	1349.3	–	11.77
363.15 K	1345.1	–	10.57

Settings	Molar enthalpy of transition or fusion [kcal/mol]	Normal melting temperature [°C]	molar heat capacity at constant pressure [J/K/mol]
[2]	–	-13.4	–
[3]	–	–	584.19
[4]	4.83	–	–

CCCC[N+]1(C)CCCCC1.O=S(=O)([N-]S(=O)(=O)C(F)(F)F)C(F)(F)F
Settings	mass density [kg/m3]	refractive index	surface tension liquid-gas [mN/m]	viscosity [mPa·s]
[1], 288.15 K	–	1.43251	–	–
[1], 293.15 K	–	1.43105	–	–
[1], 298.15 K	–	1.42959	–	–
[1], 303.15 K	–	1.42813	–	–
[1], 308.15 K	–	1.42667	–	–
[1], 313.15 K	–	1.42521	–	–
[1], 318.15 K	–	1.42375	–	–
[2], 293.15 K	1386.9	–	–	261.28
[2], 298.15 K	1382.5	–	–	189.11
[2], 298.2 K	–	–	34.14	–
[2], 303.15 K	1378.1	–	–	141.44
[2], 308.15 K	1373.8	–	–	108.27
[2], 308.2 K	–	–	33.65	–
[2], 313.15 K	1369.5	–	–	84.87
[2], 318.15 K	1365.2	–	–	67.24
[2], 318.2 K	–	–	33.17	–
[2], 323.15 K	1361	–	–	54.34
[2], 328.15 K	1356.7	–	–	44.55
[2], 328.2 K	–	–	32.68	–
[2], 333.15 K	1352.5	–	–	37.09
[2], 338.15 K	1348.3	–	–	31.09
[2], 338.2 K	–	–	32.2	–
[2], 343.15 K	1344.1	–	–	26.41
[2], 343.2 K	–	–	31.96	–
[2], 348.15 K	1340	–	–	22.65
[2], 353.15 K	1335.9	–	–	19.65
[2], 358.15 K	1331.8	–	–	17.09
[2], 363.15 K	1327.7	–	–	15.01

Settings	molar heat capacity at constant pressure [J/K/mol]
[3]	607.52
